Experimental data taken from the supplement of paper PMC9103864.

Columns and labels:
[1] = tested on: BMSC (primary human bone marrow mesenchymal stromal cells); assay: absolute EC50 for viability; higher = less sensitive
[2] = tested on: BMSC (primary human bone marrow mesenchymal stromal cells); assay: drug sensitivity score (DSS); higher = more sensitive

SMILES	absolute EC50 for viability [1] [µM]	drug sensitivity score [2]
Nc1ccn([C@@H]2O[C@H](CO)[C@@H](O)[C@@H]2O)c(=O)n1 [Cytarabine]	> 10	1.2
CNC(=O)c1cc(Oc2ccc(NC(=O)Nc3ccc(Cl)c(C(F)(F)F)c3)c(F)c2)ccn1 [Regorafenib]	> 10	0.7
C=C1C[C@@H]2[C@H](CC[C@]3(C)C(=O)CC[C@@H]23)[C@@]2(C)C=CC(=O)C=C12 [Exemestane]	> 10	0
COc1cc2ncnc(Oc3cccc(NC(=O)Nc4cc(C(C)(C)C(F)(F)F)on4)c3)c2cc1OC	> 10	4.6
COc1cccc2c1C(=O)c1c(O)c3c(c(O)c1C2=O)C[C@@](O)(C(=O)CO)C[C@@H]3O[C@H]1C[C@H](N)[C@H](O)[C@H](C)O1 [Doxorubicin]	0.219	6.8
CC(C)c1c(C(=O)Nc2ccccc2)c(-c2ccccc2)c(-c2ccc(F)cc2)n1CC[C@@H](O)C[C@@H](O)CC(=O)O [Atorvastatin]	8.18	3.1
COc1cc(OC2CCN(C)CC2)ccc1Nc1ncc2c(n1)n(C1CCCC1)c(=O)n2C [AZ 3146]	> 10	2.9
N#Cc1ccc(COC[C@H]2O[C@@H](n3c(NCc4ccc(Cl)c(Cl)c4)nc4c(N)ncnc43)[C@H](O)[C@@H]2O)cc1	> 10	2.2
CNC(=O)c1ccc(C)c(-n2c(C)cc(OCc3ccc(F)cc3F)c(Br)c2=O)c1	> 1	0
CNC(=O)c1nn(C)c2c1C(C)(C)Cc1cnc(Nc3ccc(N4CCN(C)CC4)cc3)nc1-2 [Milciclib]	> 10	10.1
C=CCN(/C=C1/C(=O)O[C@H](COC)[C@@]2(C)C1=C(O)C(=O)C1=C2[C@H](OC(C)=O)C[C@]2(C)C(=O)CC[C@@H]12)CC=C [Sonolisib]	> 10	0
Nc1cccc2c1C(=O)N(C1CCC(=O)NC1=O)C2=O (centres undefined) [Pomalidomide]	> 10	0
O=C(/C=C\n1cnc(-c2cc(C(F)(F)F)cc(C(F)(F)F)c2)n1)NNc1ccccn1 [Verdinexor]	> 1	1.6
Cn1nccc1Nc1nccc(-c2ccn([C@H](CO)c3ccc(Cl)c(F)c3)c(=O)c2)n1 [Ravoxertinib]	> 10	0
COc1cc(Nc2c(C#N)cnc3cc(OCCCN4CCN(C)CC4)c(OC)cc23)c(Cl)cc1Cl [Bosutinib]	1.69	8.8
CC1(C)CCC(CN2CCN(c3ccc(C(=O)NS(=O)(=O)c4ccc(NCC5CCOCC5)c([N+](=O)[O-])c4)c(Oc4cnc5[nH]ccc5c4)c3)CC2)=C(c2ccc(Cl)cc2)C1 [Venetoclax]	> 1	0
O=c1[nH]c(C2CCCN2)nc2c1oc1ccc(Cl)cc12 (centres undefined)	> 10	0.6
Cc1sc2c(c1C)C(c1ccc(Cl)cc1)=N[C@@H](CC(=O)Nc1ccc(OCCOCCOCCOCCNc3cccc4c3C(=O)N(C3CCC(=O)NC3=O)C4=O)cc1)c1nnc(C)n1-2 (some centres undefined) [ARV-825]	0.036	10.1
CCNC(=O)CCC/C=C\C[C@@H]1[C@@H](/C=C/[C@@H](O)CCc2ccccc2)[C@H](O)C[C@@H]1O [Bimatoprost]	> 5.5	-0.9
COc1cc2c(cc1OCCCN1CCCC1)N=C(N)C21CCC1 [A-366]	> 25	2.8
Nc1nc(NC2CC2)cc(-c2cccc(Cl)c2Cl)n1 [TH588]	> 25	0
CCCN(CCC)C(=O)C1=Cc2ccc(-c3ccc(C(=O)N4CCCC4)cc3)cc2N=C(N)C1 [Motolimod]	9.93	0
